Counter-ions that a name gives are not always drawn.
How the values were obtained:
[1] = system: restless leg syndrome and PLMS, and Primary snoring; experiment: Overnight polysomnographic sleep study, evening dosage; format: in vivo, human; settings: oral 50 mg in the evening, versus baseline without drug
From the text: A non-obese subject with no outstanding medical history other than restless leg syndrome and PLMS of 6 years duration, and Primary snoring, 60 kg, was entered into an overnight sleep study in a specialist hospital sleep disorder center. […] Snoring as represented by the Snore Index was reduced 70%.

[2] = doses up to 400 mg per day, given as a single dose; cited from earlier work
[3] = system: PLMD and RLS and Primary snoring; experiment: Case reports: patient with sleep study diagnosed PLMD, RLS and Primary snoring taking the drug orally; format: in vivo, human; settings: for RLS and PLMD symptoms on chronic use: symptoms returned immediately after stopping
Description: An otherwise healthy non-obese person with sleep study diagnosed PLMD and RLS and Primary snoring without apnea, 61 kg, took Requip, ropinirole HCL from 0.25 to 0.75 mg orally per day for PLMS and RLS for a period of over 8-12 months. PLM were severe enough to occasionally awaken them from sleep. […] Multiple attempts at gaining relief were made over a period of 8-12 months. These attempts failed. […]

[4] = cited from earlier work; for share of trough concentration (Cminss) of circulating modafinil: after once daily dosing of racemic modafinil
RLS = settings: moderate to severe RLS; cited from earlier work
[5] = 50 mg by mouth 1-3 hours prior to bedtime
[6] = 50 mg by mouth between 8 am and noon
[7] = 50 mg or 25 mg by mouth in the morning

Compound: NC(=O)C[S+]([O-])C(c1ccccc1)c1ccccc1 (racemic) [modafinil, 2-[(diphenylmethyl)sulfiny]acetamide]
- PLMs during sleep [1]: not detected
- reduction of snoring as represented by the Snore Index [1]: 70%
- tolerability [2]: well tolerated
- symptoms ([3]; 25 mg as needed, evening dosage): either completely relieved or greatly diminished
- removal of symptoms at lower dosage ([3]; 25 mg by mouth in the morning): failed to entirely remove symptoms
- limb movements and the urge to move the limb and associated sensations while awake [3, 5]: greatly reduced
- time until limb movements and urge were greatly reduced [3, 5]: approximately 90 minutes
- leg jerks during sleep observed by partner [3, 6]: no leg jerks during sleep were observed
- limb movements and snoring while asleep noticed by partner [3, 6]: absence of limb movements and snoring
- restfulness noted by patient [3, 6]: increased restfulness
- urge to move legs in the evenings [3, 6]: No urge to move legs in the evenings occurred
- limb movements and the urge to move the limb and associated sensations while awake [3, 7]: greatly reduced
- snoring noted by sleep partner [3, 7]: marked decrease in snoring
- leg jerks during sleep observed by partner ([3]; 100 mg by mouth in the morning): no leg jerks during sleep were observed
- limb movements and snoring while asleep noticed by partner ([3]; 100 mg by mouth in the morning): absence of limb movements and snoring
- restfulness noted by patient ([3]; 100 mg by mouth in the morning): increased restfulness
- urge to move legs in the evenings ([3]; 100 mg by mouth in the morning): No urge to move legs in the evenings occurred
- RLS and PLMD symptoms on chronic use ([3]; evening dosage, every day for periods of 5 to 7 days): periods free from RLS and PLMD symptoms
- RLS and PLMD symptoms on chronic use ([3]; morning dosage 50 or 25 mg, every day for periods of up to 11 days): periods free from RLS and PLMD symptoms

Compound: NC(=O)C[S+]([O-])C(c1ccccc1)c1ccccc1 (single isomer, unassigned) [d-isomer]
- share of trough concentration (Cminss) of circulating modafinil [4]: 10%

Compound: NC(=O)C[S@@+]([O-])C(c1ccccc1)c1ccccc1 [I-isomer, r-2-((diphenylmethyl)sulfinyl)-acetamide]
- share of trough concentration (Cminss) of circulating modafinil [4]: 90%
- total exposure at steady state relative to that for the d-isomer ([4]; taken orally, steady state): approximately three

Compound: CCCN(CCC)CCc1cccc2c1CC(=O)N2 [Requip, ropinirole HCL]
- PLMS according to the partner ([3]; ropinirole HCL 0.25 to 0.75 mg orally per day, over 8-12 months): PLMS continued
- relief of RLS/PLMS symptoms ([3]; ropinirole HCL 0.25 to 0.75 mg orally per day, over 8-12 months, person): did not relieve symptoms
- additional complications reported by patients (RLS): constipation and daytime sleepiness

From patent US20100010092A1, “USE OF MODAFINIL TO TREAT RESTLESS LEG SYNDROME” (Arless Ltd., priority 2006, published 2010)
